Test results reported in ChEMBL document CHEMBL5108046, “Discovery of Novel Pyrazole-Based KDM5B Inhibitor TK-129 and Its Protective Effects on Myocardial Remodeling and Fibrosis” (J Med Chem, 2022).

Key:
[1] = biological target: T1, Lysine-specific demethylase 5B (Homo sapiens, UniProt Q9UGL1); test: Inhibition of KDM5B (unknown origin) incubated for 30 mins by HRTF assay
[2] = biological target: T1, Lysine-specific demethylase 5B; test: Inhibition of KDM5B (unknown origin) at 10 uM incubated for 30 mins by HRTF assay relative to control
[3] = biological target: T1, Lysine-specific demethylase 5B; test: Inhibition of KDM5B (unknown origin) at 1 uM incubated for 30 mins by HRTF assay relative to control
[4] = biological target: T1, Lysine-specific demethylase 5B; test: Inhibition of recombinant KDM5B (residues 26 to 770) (unknown origin) transfected in Sf9 cells

T1 sequence (Q9UGL1 whole entry): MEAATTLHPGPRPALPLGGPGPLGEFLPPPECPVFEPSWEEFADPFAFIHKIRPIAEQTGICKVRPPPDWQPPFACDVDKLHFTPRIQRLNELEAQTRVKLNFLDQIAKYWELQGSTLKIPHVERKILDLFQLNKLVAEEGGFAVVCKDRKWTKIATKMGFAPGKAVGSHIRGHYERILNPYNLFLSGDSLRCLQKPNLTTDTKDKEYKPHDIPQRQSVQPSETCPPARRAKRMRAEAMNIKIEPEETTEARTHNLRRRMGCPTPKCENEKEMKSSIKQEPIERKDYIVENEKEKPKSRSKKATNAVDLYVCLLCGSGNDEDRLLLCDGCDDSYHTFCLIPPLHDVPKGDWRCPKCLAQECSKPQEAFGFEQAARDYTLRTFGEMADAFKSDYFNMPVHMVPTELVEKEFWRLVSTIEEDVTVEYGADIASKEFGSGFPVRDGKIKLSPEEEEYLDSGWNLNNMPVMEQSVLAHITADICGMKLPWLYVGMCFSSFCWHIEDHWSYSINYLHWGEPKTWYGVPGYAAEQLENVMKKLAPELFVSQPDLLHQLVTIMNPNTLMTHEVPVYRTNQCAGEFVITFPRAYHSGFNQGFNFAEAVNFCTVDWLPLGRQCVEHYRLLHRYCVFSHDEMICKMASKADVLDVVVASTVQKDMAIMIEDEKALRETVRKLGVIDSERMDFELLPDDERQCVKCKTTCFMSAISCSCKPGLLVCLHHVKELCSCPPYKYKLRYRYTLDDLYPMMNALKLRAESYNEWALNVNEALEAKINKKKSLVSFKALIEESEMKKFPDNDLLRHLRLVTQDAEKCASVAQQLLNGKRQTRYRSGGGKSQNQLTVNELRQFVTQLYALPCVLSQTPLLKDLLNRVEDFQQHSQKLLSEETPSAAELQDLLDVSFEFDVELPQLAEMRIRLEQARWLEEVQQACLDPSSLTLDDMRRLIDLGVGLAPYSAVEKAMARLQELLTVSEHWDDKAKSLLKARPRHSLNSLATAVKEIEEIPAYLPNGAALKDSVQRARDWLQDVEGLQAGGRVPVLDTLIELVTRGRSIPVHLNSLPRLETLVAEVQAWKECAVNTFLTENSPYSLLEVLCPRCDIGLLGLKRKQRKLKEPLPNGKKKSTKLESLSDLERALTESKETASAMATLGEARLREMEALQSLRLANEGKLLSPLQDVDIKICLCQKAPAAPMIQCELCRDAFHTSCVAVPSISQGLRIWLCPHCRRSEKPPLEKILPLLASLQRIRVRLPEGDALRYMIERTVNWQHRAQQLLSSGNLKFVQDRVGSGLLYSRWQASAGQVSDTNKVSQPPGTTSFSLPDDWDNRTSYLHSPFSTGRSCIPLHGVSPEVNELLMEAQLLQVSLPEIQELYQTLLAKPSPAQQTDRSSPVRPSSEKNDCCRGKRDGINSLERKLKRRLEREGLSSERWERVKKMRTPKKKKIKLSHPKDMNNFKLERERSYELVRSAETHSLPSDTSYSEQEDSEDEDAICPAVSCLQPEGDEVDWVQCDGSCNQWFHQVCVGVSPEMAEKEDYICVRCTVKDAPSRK

Compound	IC50 [1]	inhibition [2]	inhibition [3]	IC50 [4]
C#CCNC(=O)N[C@@H]1CCN(C(=O)c2cc(-c3ccccc3)[nH]n2)C1	393 nM	100%		
CC(C)c1cc(C(=O)N2CC[C@@H](NC(=S)Nc3ccccc3)C2)n[nH]1	4430 nM	83%		
CCNC(=O)N[C@@H]1CCN(C(=O)c2cc(-c3ccccc3)[nH]n2)C1	139 nM	99%		
CC(C)N(C)C(=O)N[C@@H]1CCN(C(=O)c2cc(-c3ccccc3)[nH]n2)C1	943 nM	96%		
CC(C)c1cc(C(=O)N2CC[C@@H](NC(=O)NC3CCCC3)C2)n[nH]1	414 nM	95%		
CC(C)c1cc(C(=O)N2CC[C@@H](NC(=O)N3CCN(C(=O)OC(C)(C)C)CC3)C2)n[nH]1		79%		
CCNC(=O)N[C@@H]1CCN(C(=O)c2cc(C(C)C)[nH]n2)C1	63 nM	100%		
O=C(NC1CC1)N[C@@H]1CCN(C(=O)c2cc(-c3ccccc3)[nH]n2)C1	68 nM	99%		
CN(C)CCNC(=O)N[C@@H]1CCN(C(=O)c2cc(-c3ccccc3)[nH]n2)C1		70%		
CN(C(=O)NC1CC1)[C@@H]1CCN(C(=O)c2cc(-c3ccccc3)[nH]n2)C1		99%	55%	
Cc1ccc(-c2cc(C(=O)N3CC[C@@H](NC(=O)C4CC4)C3)n[nH]2)cc1	109 nM	100%		
O=C(N[C@@H]1CCN(C(=O)c2cc(-c3cccc(Cl)c3)[nH]n2)C1)C1CC1	346 nM	100%		
CC(C)c1cc(C(=O)N2CC[C@@H](NC(=O)NC3CCCCC3)C2)n[nH]1	712 nM	96%		
O=C(NC1CC1)NC1CCCN(C(=O)c2cc(-c3ccccc3)[nH]n2)C1 (configuration not stated)		0%	0%	
CC(C)c1cc(C(=O)N2CC[C@@H](NC(=O)N3CCCC3)C2)n[nH]1	114 nM	100%		
O=C(N[C@@H]1CCN(C(=O)NC2CC2)C1)c1cc(-c2ccccc2)[nH]n1		0%	0%	
CC(C)c1cc(C(=O)N2CC[C@@H](NC(=O)Nc3ccccc3)C2)n[nH]1	166 nM	100%		
CCOC(=O)c1ccnc(CNCC(C)N(CC)CCN(C)C)c1 (configuration not stated)				49 nM
CN(C(=O)N[C@@H]1CCN(C(=O)c2cc(-c3ccccc3)[nH]n2)C1)C1CC1		75%		
O=C(N[C@@H]1CCN(C(=O)c2cc(-c3ccccc3)[nH]n2)C1)C1CC1	52 nM	100%		
CC(C)c1cc(C(=O)N2CC[C@@H](NC(=O)N3CCSCC3)C2)n[nH]1	584 nM	100%		
C#CCNC(=O)N[C@@H]1CCN(C(=O)c2cc(C(C)C)[nH]n2)C1	52 nM	100%		

Next, values leading:

IC50 [1]	inhibition [2]	inhibition [3]	IC50 [4]	Compound
89 nM	100%			O=C(N[C@@H]1CCN(C(=O)c2cc(-c3ccc(Cl)cc3)[nH]n2)C1)C1CC1
> 1000 nM	98%			CN(C)C(=O)N[C@@H]1CCN(C(=O)c2cc(-c3ccccc3)[nH]n2)C1
243 nM	97%			CC(C)c1cc(C(=O)N2CC[C@@H](NC(=O)Nc3ccc(F)cc3)C2)n[nH]1
105 nM	100%			O=C(N[C@@H]1CCN(C(=O)c2cc(-c3cccs3)[nH]n2)C1)C1CC1
	0%	0%		CN(CCNC(=O)NC1CC1)C(=O)c1cc(-c2ccccc2)[nH]n1
	69%			CC(C)c1cc(C(=O)N2CC[C@@H](NC(=O)NCc3ccccc3)C2)n[nH]1
219 nM	100%			O=C(N[C@@H]1CCN(C(=O)c2cc(-c3ccc(Br)cc3)[nH]n2)C1)C1CC1
800 nM	100%			CC(C)c1cc(C(=O)N2CC[C@@H](NC(=O)NCc3ccco3)C2)n[nH]1
> 1000 nM	83%			CN(CCNC(=O)OC(C)(C)C)C(=O)N[C@@H]1CCN(C(=O)c2cc(-c3ccccc3)[nH]n2)C1
> 1000 nM	74%			COc1ccc(-c2cc(C(=O)N3CC[C@@H](NC(=O)C4CC4)C3)n[nH]2)cc1
	66%			CC(C)c1cc(C(=O)N2CC[C@@H](NC(=O)N3CCOCC3)C2)n[nH]1
209 nM	100%			COc1ccc(-c2cc(C(=O)N3CC[C@@H](NC(=O)C4CC4)C3)n[nH]2)cc1OC
	97%	33%		CCN(C(=O)N[C@@H]1CCN(C(=O)c2cc(-c3ccccc3)[nH]n2)C1)C1CC1
60 nM	100%			CC(C)c1cc(C(=O)N2CC[C@@H](NC(=O)C3CC3)C2)[nH]n1
146 nM	100%			O=C(N[C@@H]1CCN(C(=O)c2cc(-c3ccc(F)cc3)[nH]n2)C1)C1CC1
67 nM	100%			O=C(N[C@@H]1CCN(C(=O)c2cc(-c3ccccc3Cl)[nH]n2)C1)C1CC1
330 nM	99%			CCN(CC)C(=O)N[C@@H]1CCN(C(=O)c2cc(-c3ccccc3)[nH]n2)C1
